Assay results reported in patent US12091411B2, “IRAK degraders and uses thereof” (Kymera Therapeutics, Inc., priority 2022, dated 2024).
Where two headings read alike, the source gives them in different places.

Biological target: T1, IRAK4 (Homo sapiens, UniProt Q9NWZ3)
T1 construct: Degradation of IRAK4 in OCI-LY10 was quantitatively measured using Meso Scale Discovery technology; endogenous in cells; host or cells: OCI-LY10
T1 sequence (Q9NWZ3 1-460): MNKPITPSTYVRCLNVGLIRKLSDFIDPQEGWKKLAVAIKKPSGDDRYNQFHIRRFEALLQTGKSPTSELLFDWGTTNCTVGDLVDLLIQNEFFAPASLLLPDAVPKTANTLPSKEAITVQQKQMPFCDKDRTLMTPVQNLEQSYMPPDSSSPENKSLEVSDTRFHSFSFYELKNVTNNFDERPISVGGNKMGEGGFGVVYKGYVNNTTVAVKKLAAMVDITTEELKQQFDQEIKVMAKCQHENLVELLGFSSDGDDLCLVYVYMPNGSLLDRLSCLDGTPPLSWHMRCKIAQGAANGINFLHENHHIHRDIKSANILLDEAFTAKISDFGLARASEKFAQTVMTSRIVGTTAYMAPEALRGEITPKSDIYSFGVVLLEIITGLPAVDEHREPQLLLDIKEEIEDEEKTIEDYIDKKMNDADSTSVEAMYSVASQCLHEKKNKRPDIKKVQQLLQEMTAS
Experiment: IRAK4 MSD Degradation in OCI-LY10
Format: cell-based
Conditions: OCI-LY10 cells, MSD
Procedure, shortened: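 OCI-LY10 cells exposed to 8-point 1:3 compound series (top 1 to 10 μM) for 4 to 24 h at 37 °C, 5% CO2. Lysate IRAK4 quantified by MSD sandwich immunoassay. DC50 from three-parameter logistic fit, binned A (<0.01 μM) to D (>0.2 μM or not tested).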

[1] = 4 hrs incubation, read-out: IRAK4 degradation in OCI-LY10 at 4 hrs: DC50
[2] = 24 hrs incubation, read-out: IRAK4 degradation in OCI-LY10 at 24 hrs: DC50

| DC50 [1] [nM] | DC50 [2] [nM] | Compound |
| --- | --- | --- |
| > 200 | > 200 | Cn1c(=O)n(C2CCC(=O)NC2=O)c2cccc(C3=CCN(C[C@H]4CC[C@H](n5cc6cc(NC(=O)c7cccc(C(F)(F)F)n7)ccc6n5)CC4)CC3(F)F)c21 (stereo partly shown) [I-454] |
| > 200 | 10 to 100 | CC(C)(O)c1cc2nn([C@H]3CC[C@H](CN4CCC5(CC4)CC(CCNc4cccc6c4C(=O)N(C4CCC(=O)NC4=O)C6=O)C5)CC3)cc2cc1NC(=O)c1cccc(C(F)(F)F)n1 (stereo partly shown) [I-130] |
| > 200 | < 10 | Cn1c(=O)n(C2CCC(=O)NC2=O)c2cccc([C@H]3CCN(C[C@H]4CC[C@H](n5cc6cc(NC(=O)c7cccc(C(F)(F)F)n7)ccc6n5)CC4)C[C@@H]3O)c21 (stereo partly shown) [I-707] |
| 100 to 200 | > 200 | O=C1CCN(c2ccc(C#CCOC3CCN(C[C@H]4CC[C@H](n5cc(NC(=O)c6cnn7ccc(N8C[C@H]9C[C@@H]8CO9)nc67)c(C(F)F)n5)CC4)CC3)cc2)C(=O)N1 [I-218] |
| > 200 | < 10 | CC(C)(O)c1cc2nn([C@H]3CC[C@H](CNCCCCCCNc4cccc5c4C(=O)N(C4CCC(=O)NC4=O)C5=O)CC3)cc2cc1NC(=O)c1cccc(C(F)(F)F)n1 (stereo partly shown) [I-143] |
| > 200 | 10 to 100 | Cn1c(=O)n(C2CCC(=O)NC2=O)c2cccc(C#CCN3CCN(C[C@H]4CC[C@H](n5cc(NC(=O)c6cnn7ccc(N8CCCC89CC9)nc67)c(C(F)F)n5)CC4)CC3)c21 (stereo partly shown) [I-222] |
| > 200 | > 200 | COc1ccc2c(c1C1CCN(C[C@H]3CC[C@H](n4cc5cc(NC(=O)c6cccc(C(F)(F)F)n6)ncc5n4)CC3)CC1F)n(C)c(=O)n2C1CCC(=O)NC1=O (stereo partly shown) [I-546] |
| > 200 | > 200 | CO[C@H]1CN(c2cccc3c2n(C)c(=O)n3C2CCC(=O)NC2=O)CC[C@@H]1N(C)C[C@H]1CC[C@H](n2cc3cc(NC(=O)c4cccc(C(F)(F)F)n4)ccc3n2)CC1 (stereo partly shown) [I-496] |
| 10 to 100 | > 200 | Cc1nn([C@H]2CC[C@H](CN3CCN(CC#Cc4cccc5c4n(C)c(=O)n5C4CCC(=O)NC4=O)CC3)CC2)cc1NC(=O)c1cnn2ccc(N3C[C@H]4C[C@@H]3CO4)nc12 (relative stereo) [I-115] |
| > 200 | < 10 | Cc1ccc(-c2nn([C@H]3CC[C@H](CN(C)C4CCN(c5cccc6c5n(C)c(=O)n6C5CCC(=O)NC5=O)CC4)CC3)cc2NC(=O)c2cnn3cccnc23)nc1 (stereo partly shown) [I-292] |
| > 200 | > 200 | Cn1c(=O)n(C2CCC(=O)NC2=O)c2cccc(C3=CCN(C[C@H]4CC[C@H](n5cc6cc(NC(=O)c7cccc(C(F)(F)F)n7)c(C#N)cc6n5)CC4)CC3(F)F)c21 (stereo partly shown) [I-455] |
| > 200 | > 200 | CC1CN(c2ccn3ncc(C(=O)Nc4cn([C@H]5CC[C@H](CN(C)C6CCN(c7cccc8c7n(C)c(=O)n8C7CCC(=O)NC7=O)CC6)CC5)nc4C(F)F)c3n2)CCO1 (stereo partly shown) [I-358] |
| > 200 | > 200 | CN(C[C@H]1CC[C@H](n2cc(NC(=O)c3cnn4ccc(N5CCOC6(CCC6)C5)nc34)c(C(F)F)n2)CC1)C1CCN(c2cccc3c2n(C)c(=O)n3C2CCC(=O)NC2=O)CC1(F)F (stereo partly shown) [I-540] |
| > 200 | > 200 | Cc1cccc(C(=O)Nc2cc3cn([C@H]4CC[C@H](CN5CC[C@@H](c6cccc7c6n(C)c(=O)n7C6CCC(=O)NC6=O)[C@@H](F)C5)CC4)nc3cn2)n1 (stereo partly shown) [I-632] |
| > 200 | < 10 | Cn1c(=O)n(C2CCC(=O)NC2=O)c2cccc(C#CCN3C4CCC3CN(C[C@H]3CC[C@H](n5cc(NC(=O)c6cnn7ccc(N8C[C@H]9C[C@@H]8CO9)nc67)c(C(F)F)n5)CC3)C4)c21 (stereo partly shown) [I-343] |
| > 200 | < 10 | Cc1cccc(C(=O)Nc2cc3cn([C@H]4CC[C@H](CN5CCC(c6cccc7c6n(C)c(=O)n7C6CCC(=O)NC6=O)C(F)(F)C5)CC4)nc3cn2)n1 (stereo partly shown) [I-614] |
| > 200 | > 200 | CO[C@H]1CN(c2cccc3c2n(C)c(=O)n3C2CCC(=O)NC2=O)C[C@H]1N(C)C[C@H]1CC[C@H](n2cc3cc(NC(=O)c4cccc(C(F)(F)F)n4)ccc3n2)CC1 (stereo partly shown) [I-493] |
| > 200 | > 200 | COc1nc(NC(=O)c2cccc(C(F)(F)F)n2)cc2cn([C@H]3CC[C@H](CN4CCN(c5cccc6c5n(C)c(=O)n6C5CCC(=O)NC5=O)CC4)CC3)nc12 (stereo partly shown) [I-766] |
| < 10 | > 200 | CCn1c(=O)n(C2CCC(=O)NC2=O)c2cccc(C#CCO[C@H]3CCN(C[C@H]4CC[C@H](n5cc(NC(=O)c6cnn7ccc(N8C[C@H]9C[C@@H]8CO9)nc67)c(C(F)F)n5)CC4)C[C@@H]3C)c21 (stereo partly shown) [I-59] |

| DC50 [1] [nM] | DC50 [2] [nM] | Compound |
| --- | --- | --- |
| 10 to 100 | > 200 | COc1cc2nn([C@H]3CC[C@H](CN4CCC5(CC4)CCN(c4ccc(C6CCC(=O)NC6=O)cc4)CC5)CC3)cc2cc1NC(=O)c1cncc(C#N)c1 (stereo partly shown) [I-88] |
| > 200 | > 200 | Cn1c(=O)n(C2CCC(=O)NC2=O)c2cccc([C@H]3C[C@H](OC4CCN(C[C@H]5CC[C@H](n6cc(NC(=O)c7cnn8ccc(N9C[C@H]%10C[C@@H]9CO%10)nc78)c(C(F)F)n6)CC5)CC4)C3)c21 (stereo partly shown) [I-82] |
| > 200 | < 10 | Cn1c(=O)n(C2CCC(=O)NC2=O)c2cccc(C3CCN(C[C@H]4CC[C@H](n5cc6cc(NC(=O)c7cnn8ccc(N9C[C@H]%10C[C@@H]9CO%10)nc78)ccc6n5)CC4)CC3(F)F)c21 (stereo partly shown) [I-719] |
| > 200 | > 200 | CN(C[C@H]1CC[C@H](n2cc3cc(NC(=O)c4cccc(C(F)(F)F)n4)c(C(F)F)cc3n2)CC1)C1CCN(c2cccc3c2n(C)c(=O)n3C2CCC(=O)NC2=O)CC1F (stereo partly shown) [I-557] |
| > 200 | < 10 | Cn1c(=O)n(C2CCC(=O)NC2=O)c2cccc(N3CCN(C4CCN(C[C@H]5CC[C@H](n6cc(NC(=O)c7cnn8ccc(N9CC%10(COC%10)C9)nc78)c(C(F)F)n6)CC5)CC4(F)F)CC3)c21 (stereo partly shown) [I-735] |
| > 200 | > 200 | CN(Cc1ccc(-n2cc(NC(=O)c3cnn4cccnc34)c(C(F)F)n2)cc1)C1CCN(c2cccc3c2n(C)c(=O)n3C2CCC(=O)NC2=O)CC1 (stereo not shown) [I-314] |
| > 200 | > 200 | Cn1c(=O)n(C2CCC(=O)NC2=O)c2cccc([C@@H]3CCN(C[C@H]4CC[C@H](n5cc6cc(NC(=O)c7cccc(C#N)n7)ccc6n5)CC4)C[C@@H]3F)c21 (stereo partly shown) [I-624] |
| > 200 | > 200 | Cn1c(=O)n(C2CCC(=O)NC2=O)c2cccc(C#CCOC3CCN(C[C@H]4CC[C@H](n5cc(NC(=O)c6cccc7ccc(N8CCC8)nc67)c(C(F)F)n5)CC4)CC3)c21 (stereo partly shown) [I-336] |
| > 200 | < 10 | Cn1c(=O)n(C2CCC(=O)NC2=O)c2cccc(C#CCN3CCN(C[C@H]4CC[C@H](n5cc(NC(=O)c6cnn7ccc(N8CCC9(CCOCC9)C8)nc67)c(C(F)F)n5)CC4)CC3)c21 (stereo partly shown) [I-319] |
| < 10 | > 200 | Cn1c(=O)n(C2CCC(=O)NC2=O)c2cccc(C#CCN3CCN(C[C@H]4CC[C@H](n5cc(NC(=O)c6cnn7ccc(N8CCOC(C)(C)C8)nc67)c(C(F)F)n5)CC4)CC3)c21 (stereo partly shown) [I-111] |
| > 200 | > 200 | Cn1c(=O)n(C2CCC(=O)NC2=O)c2cccc(N3CC(O[C@H]4CCN(C[C@H]5CC[C@H](n6cc(NC(=O)c7cnn8ccc(N9C[C@H]%10C[C@@H]9CO%10)nc78)c(C(F)F)n6)CC5)C[C@H]4F)C3)c21 (stereo partly shown) [I-584] |
| > 200 | 10 to 100 | Cn1c(=O)n(C2CCC(=O)NC2=O)c2cccc(N3CC4(CCN(C[C@H]5CC[C@H](n6cc7cc(NC(=O)c8cccc(C(F)(F)F)n8)ncc7n6)CC5)CC4(F)F)C3)c21 (stereo partly shown) [I-668] |
| > 200 | > 200 | CN(CC1(F)CCN(c2cccc3c2n(C)c(=O)n3C2CCC(=O)NC2=O)CC1)C1CCC(n2cc3cc(NC(=O)c4cccc(C(F)(F)F)n4)ccc3n2)CC1 (stereo not shown) [I-788] |
| > 200 | > 200 | CN(C[C@H]1CC[C@H](n2cc(NC(=O)c3cnn4cccnc34)c(C(F)F)n2)CC1)C1CCN(c2ccc3c(c2)n(C)c(=O)n3C2CCC(=O)NC2=O)CC1(F)F (stereo partly shown) [I-481] |
| > 200 | < 10 | COc1cc2nn([C@H]3CC[C@H](CN4CCC5(CC4)CC(Oc4cccc6c4C(=O)N(C4CCC(=O)NC4=O)C6=O)C5)CC3)cc2cc1NC(=O)c1cccc(C(F)(F)F)n1 (stereo partly shown) [I-138] |
| 10 to 100 | > 200 | Cn1c(=O)n(C2CCC(=O)NC2=O)c2cccc(C#CCOC3CCN(C[C@H]4CC[C@H](n5cc(NC(=O)c6cnn7ccc(N8CCC9(CCOC9)C8)nc67)c(C(F)F)n5)CC4)CC3)c21 (stereo partly shown) [I-331] |
| < 10 | < 10 | CC(C)(O)c1cc2nn([C@H]3CC[C@H](CNCCNc4cccc5c4C(=O)N(C4CCC(=O)NC4=O)C5=O)CC3)cc2cc1NC(=O)c1cccc(C(F)(F)F)n1 (stereo partly shown) [I-144] |
| > 200 | > 200 | Cn1c(=O)n(C2CCC(=O)NC2=O)c2cccc(C#CCOC3CCN([C@H]4CC[C@@H](n5cc(NC(=O)c6cnn7ccc(N8C[C@H]9C[C@@H]8CO9)nc67)c(C(F)F)n5)CC4)CC3)c21 (stereo partly shown) [I-420] |
| > 200 | 10 to 100 | O=C1CCN(c2cncc3c(C4CCN(C[C@H]5CC[C@H](n6cc7cc(NC(=O)c8cccc(C(F)(F)F)n8)ccc7n6)CC5)CC4(F)F)cccc23)C(=O)N1 (stereo partly shown) [I-709] |
